Measurements: US11591604B2, “Gene expression in Bacteroides” (Massachusetts Institute of Technology, priority 2015, dated 2023)

System: NanoLuc
Test: NanoLuc luciferase reporter expression from constitutive promoters and RBSs integrated with pNBU2
Format: cell-based, B. thetaiotaomicron
Conditions: for Average Luminescence (RLU/CFU): RBS combined with promoter PBT1311, NanoLuc reporter, three biological replicates; for Expression Level (RLU/CFU): set of 8 RBSs, under control of PBT1311, NanoLuc reporter
Excerpt: FIGS. 1A-1G. Genetic parts to control expression in B. thetaiotaomicron. (FIG. 1A) The ranges of gene expression are shown for the different gene regulation systems provided herein. (FIG. 1B) IntN2 catalyzes stable integration of pNBU2-based expression constructs into one of two attBT2 sites in the B. thetaiotaomicron genome. The two attBT2 sites (attBT2-1 at nucleotide (nt) 6,217,227 and attBT2-2 at nt 6,138,320) are in the 3′ ends of tRNA^Ser genes (BT_t71 and BT_t70, respectively). (FIG. 1C) Constitutive promoters and ribosome binding sites for the construction of gene expression libraries. The putative −33 and −7 regions of the PBT1311 promoter, the Shine-Delgarno sequence, and the start codon are indicated by black boxes. Numbers below the black boxes represent nucleotide locations relative the PBT1311 transcription start site. The 26 nt sequences introduced in the PAM promoters are shown (see also FIGS. 6A-6B). Numbers at the edges of the boxes indicate the PBT1311 nucleotides replaced or the insertion site within the promoter. The location of residues randomized in the rpiL* RBS library are indicated with gray arrows (for library A: nt −14, −13, −12; for library B: nt −21, −18, −15; and for library C: nt −17, −16, −11; nt numbering is relative to the translation start site). (FIG. 1D) Activity was measured for a set of constitutive promoters and their cognate RBSs. Furthermore, a set of constitutive promoters (PBT1311, PAM1, PAM2, PAM3, PAM4) was combined with RBSs of varying strengths. Gene expression was measured using a luciferase reporter (NanoLuc). (FIG. 1E) Three large RBS libraries were constructed and combined with promoter PBT1311 to span 10^3-fold in gene expression. For reference, the parent rpiL* RBS is indicated with a black arrow. For D and E, error bars represent the standard deviation of three independent biological replicates made on separate days. (FIG. 1F) The strength of each RBS was compared to the predicted free energy of folding for the mRNA (ΔGfold,). (FIG. 1G) Strong (SEQ ID NO: 210) and weak (SEQ ID NO: 211) consensus sequences for the rpiL* −21 to −11 RBS region targeted by mutagenesis (residue locations are stated relative to the translation start site) are provided. Frequency logos were generated for the 11 strongest and 11 weakest RBSs by comparing the frequency of each nucleotide at each position in that group with the frequency of that nucleotide in that position in the full library. Position −20 and −19 were not randomized and are thus are not shown in the frequency logos.
All genetic parts in this study were characterized using the integration vector pNBU2 to ensure genetic stability of the constructs (FIG. 1B). The pNBU2 plasmid encodes the intN2 tyrosine integrase, which mediates sequence-specific recombination between the attN site of pNBU2 and one of two attBT sites located in the 3′ ends of the two tRNA^Ser genes, BT_t70 and BT_t71, on the B. thetaiotaomicron chromosome (FIG. 1B). Insertion of the pNBU2 plasmid inactivates the tRNA^Ser gene, and simultaneous insertion into both BT_t70 and BT_t71 is unlikely due to the essentiality of tRNA^Ser. pNBU2-based vectors have been used for single-copy complementation in B. thetaiotaomicron in in vitro studies (Koropatkin N M et al. Nat. Rev. Microbiol. 10:323-35, 2012) and in vivo mouse models (Martens E C et al. Cell Host Microbe 4:447-57, 2008).
B. thetaiotaomicron genetic parts were characterized with NanoLuc luciferase (Hall M P et al. ACS Chem. Biol. 7:1848-1857, 2012), which is a small (19 kDa) modified shrimp luciferase. Efforts to use members of the green fluorescent protein family and a FMN-based fluorescent reporter were not successful. NanoLuc oxidizes the exogenously-added substrate furimazine to produce glow-type bioluminescence (Emax=460 nm) with a signal half-life of 2 hr. […]

Substance | Average Luminescence (RLU/CFU) | Expression Level (RLU/CFU)
C23: RBS, SEQ ID NO: 60 (DNA TCCCGCATTTTAAAATAAAATAAATTATTGATTTACTTAAACGAAT; chemistry not fully specified) | 0.01469 | –
B18: RBS, SEQ ID NO: 35 (DNA TCCCGCATTTTAAAATAAAATAAATAATGTAGTTAATTAAACGAAT; chemistry not fully specified) | 0.02291 | –
C31: RBS, SEQ ID NO: 90 (DNA TCCCGCATTTTAAAATAAAATAAATTATTTATTTACTTAAACGAAT; chemistry not fully specified) | 0.007861 | –
C10: RBS, SEQ ID NO: 31 (DNA TCCCGCATTTTAAAATAAAATAAATTATTATTTTAATTAAACGAAT; chemistry not fully specified) | 0.02583 | –
B33: RBS, SEQ ID NO: 97 (DNA TCCCGCATTTTAAAATAAAATAAATCATGTATTTAATTAAACGAAT; chemistry not fully specified) | 0.006272 | –
B17: RBS, SEQ ID NO: 30 (DNA TCCCGCATTTTAAAATAAAATAAATAATTTAGTTAATTAAACGAAT; chemistry not fully specified) | 0.0259 | –
A33: RBS, SEQ ID NO: 106 (DNA TCCCGCATTTTAAAATAAAATAAATTATTTCTTTAGTTAAACGAAT; chemistry not fully specified) | 0.005258 | –
A23: RBS, SEQ ID NO: 79 (DNA TCCCGCATTTTAAAATAAAATAAATTATTAGTTTACTTAAACGAAT; chemistry not fully specified) | 0.009507 | –
B28: RBS, SEQ ID NO: 77 (DNA TCCCGCATTTTAAAATAAAATAAATTATGTAGTTAATTAAACGAAT; chemistry not fully specified) | 0.009593 | –
C47: RBS, SEQ ID NO: 126 (DNA TCCCGCATTTTAAAATAAAATAAATTATTTGTTTAATTAAACGAAT; chemistry not fully specified) | 0.00189 | –
C14: RBS, SEQ ID NO: 40 (DNA TCCCGCATTTTAAAATAAAATAAATTATTTCTTTACTTAAACGAAT; chemistry not fully specified) | 0.02123 | –
B40: RBS, SEQ ID NO: 134 (DNA TCCCGCATTTTAAAATAAAATAAATCATGTAGTTAATTAAACGAAT; chemistry not fully specified) | 0.001108 | –
A29: RBS, SEQ ID NO: 95 (DNA TCCCGCATTTTAAAATAAAATAAATTATTCCTTTATTTAAACGAAT; chemistry not fully specified) | 0.006833 | –
rpiL*-C39: RBS, SEQ ID NO: 176; sequence and value match B39 of Table 1 (DNA TCCCGCATTTTAAAATAAAATAAATCATCTAGTTAATTAAACGAATATG; chemistry not fully specified) | – | 1.26E-03
C50: RBS, SEQ ID NO: 132 (DNA TCCCGCATTTTAAAATAAAATAAATTATTTGTTTATTTAAACGAAT; chemistry not fully specified) | 0.001261 | –
B2: RBS, SEQ ID NO: 2 (DNA TCCCGCATTTTAAAATAAAATAAATGATATAATTAATTAAACGAAT; chemistry not fully specified) | 0.06325 | –
A14: RBS, SEQ ID NO: 59 (DNA TCCCGCATTTTAAAATAAAATAAATTATTTCTTTATTTAAACGAAT; chemistry not fully specified) | 0.01475 | –

Substance | Average Luminescence (RLU/CFU) | Expression Level (RLU/CFU)
rpiL*: parent ribosomal protein RBS, SEQ ID NO: 39, 172, 174 (DNA TCCCGCATTTTAAAATAAAATAAATTATTTATTTAATTAAACGAAT; chemistry not fully specified) | 0.02133 | 2.13E-02
A18: RBS, SEQ ID NO: 69 (DNA TCCCGCATTTTAAAATAAAATAAATTATTCATTTATTTAAACGAAT; chemistry not fully specified) | 0.01237 | –
A9: RBS, SEQ ID NO: 46 (DNA TCCCGCATTTTAAAATAAAATAAATTATTGTTTTACTTAAACGAAT; chemistry not fully specified) | 0.0186 | –
B29: RBS, SEQ ID NO: 80 (DNA TCCCGCATTTTAAAATAAAATAAATTATATAGTTAATTAAACGAAT; chemistry not fully specified) | 0.009478 | –
B10: RBS, SEQ ID NO: 12 (DNA TCCCGCATTTTAAAATAAAATAAATTATATATTTAATTAAACGAAT; chemistry not fully specified) | 0.04421 | –
C26: RBS, SEQ ID NO: 75 (DNA TCCCGCATTTTAAAATAAAATAAATTATTTATTTACTTAAACGAAT; chemistry not fully specified) | 0.009775 | –
C6: RBS, SEQ ID NO: 19 (DNA TCCCGCATTTTAAAATAAAATAAATTATTAATTTAGTTAAACGAAT; chemistry not fully specified) | 0.03263 | –
A44: RBS, SEQ ID NO: 135 (DNA TCCCGCATTTTAAAATAAAATAAATTATTCGTTTATTTAAACGAAT; chemistry not fully specified) | 0.0006478 | –
B32: RBS, SEQ ID NO: 92 (DNA TCCCGCATTTTAAAATAAAATAAATGATGTAGTTAATTAAACGAAT; chemistry not fully specified) | 0.007096 | –
A6: RBS, SEQ ID NO: 33 (DNA TCCCGCATTTTAAAATAAAATAAATTATTTCTTTAATTAAACGAAT; chemistry not fully specified) | 0.0256 | –
A4: RBS, SEQ ID NO: 29 (DNA TCCCGCATTTTAAAATAAAATAAATTATTAATTTAATTAAACGAAT; chemistry not fully specified) | 0.02664 | –
C5: RBS, SEQ ID NO: 17 (DNA TCCCGCATTTTAAAATAAAATAAATTATTCATTTAATTAAACGAAT; chemistry not fully specified) | 0.03327 | –
C41: RBS, SEQ ID NO: 117 (DNA TCCCGCATTTTAAAATAAAATAAATTATTGGTTTATTTAAACGAAT; chemistry not fully specified) | 0.003107 | –
C32: RBS, SEQ ID NO: 91 (DNA TCCCGCATTTTAAAATAAAATAAATTATTGCTTTATTTAAACGAAT; chemistry not fully specified) | 0.007717 | –
C13: RBS, SEQ ID NO: 38 (DNA TCCCGCATTTTAAAATAAAATAAATTATTAATTTAATTAAACGAAT; chemistry not fully specified) | 0.02149 | –
C34: RBS, SEQ ID NO: 96 (DNA TCCCGCATTTTAAAATAAAATAAATTATTCTTTTACTTAAACGAAT; chemistry not fully specified) | 0.006727 | –
